Data reported in patent publication US12233044B2, “Cannabidiol and chitosan compositions and methods of using the same” (priority 2017, dated 2025).
“And” between values parts separate entries of the source, which are not always exact repeats. Equal values may be shown once.

Assays:
[1] = Guinea pig induced dyslipidemia model, body weight gain; format: in vivo
Procedure: The objective of this research was to examine the cholesterol blood levels of guinea pigs, fed ad libitum a high-level fat diet rich in lauric and myristic acids alone or in combination with various formulations.
“Day 0” was initiation of the Study period, animals received regular guinea pig diet. Day 3 the animals were subjected to blood withdrawal and subsequently the first day of supplying the fattening diet. On day 11 chitosan diet was administered to the relevant group. On day 24 CBD diet and CBD chitosan diet were administered until day 27.
Determination of individual body weights of animals was conducted once weekly during the entire study.

[2] = test system: Triglyceride levels in the serum; experiment: Guinea pig induced dyslipidemia model, serum triglycerides; format: in vivo
Procedure: The blood cholesterol and triglycerides were examined in male guinea pigs, following an oral administration of the various formulations in correlation to the Controlled group.
Measurement of cholesterol, and Triglyceride levels in the serum were performed following a 7-10 day of exposure to the different diets.
Day 3 all animals; Day 11 all animals; Day 24 all animals; Day 27 CBD, CNTL-fattening and CBD-chitosan group.
The blood collection tubes (BD 367955) were specialized for serum separation, containing a clot activator and a gel which separates the cell content (pellet) from the serum (supernatant) after centrifugation. Blood samples of ˜0.5 mL/animal were collected into the pre-marked tubes (study code, animal number and date). At all times blood was collected under anesthesia: Ketamine 20-40 mg/kg & Diazepam 1-2 mg/kg IM. Blood collection of all animals was performed via the periorbital eye venous plexus puncture.
Blood samples were left at room temperature for at least 45 minutes, and subsequently centrifuged ([…], 1790 g, 10 min/RT) for serum separation and left in the specialized tubes with the gel partitioning the separated serum and cell content. The samples were transferred as such to AML.
Following serum separation, the samples were kept at 2-8° C. until transferred to AML, for blood lipid profile analysis (cholesterol, LDL, HDL and Triglyceride levels). Sample transfer was via wet ice packed in Styrofoam boxes and transferred within 1-2 hours from blood separation.

C=C(C)[C@@H]1CCC(C)=C[C@H]1c1c(O)cc(CCCCC)cc1O [CBD, Cannabidiol]
Change in Weight by group, Mean ([1]; change in weight during treatment, group mean, N 15): 58.8 | Mean difference, Change in Weight by group ([1]; contrast CBD - CHIT): 34.5 | Mean difference, Change in Weight by group ([1]; contrast CNTL - CBD): 6.0 | Mean difference, DELTA WEIGHT second phase ([1]; contrast CNTL - CBD): 2.8 | DELTA WEIGHT, Second phase Group ([1]; individual animals, second phase treatment): 108.00 and 133.00 and 157.00 and 130.00 | DELTA WEIGHT by Second phase Group, Mean ([1]; study initiation to after second phase treatment, group mean): 132.0 | Mean difference, TG delta 27 D to 10 D ([2]; contrast CNTL - CBD CNTL): 28.3 | TG delta 27 D to 10 D by group second phase, Mean ([2]; group mean): −33.0 | Triglycerides lowering effect (in words) ([2]; guinea pig, in vivo): lower TG values | Difference in triglycerides versus CNTL group ([2]; significance): not significant
